The results in this text go back to patent US10202347B2, “Compound, production method therefor, and use of said compound” (MICROBIAL CHEMISTRY RESEARCH FOUNDATION, priority 2013, dated 2019).

Converted amounts (≈) assume the structure as drawn. Where two headings read alike, the source gives them in different places.

As usually defined, the IC50 is the midpoint of a concentration-inhibition curve. Broadly, the MTD is the largest dose that counted as tolerated.

Data set [1] deals with Escherichia coli K-12 strain. The data set can be described thus: Measurement of MIC for Escherichia coli. Conditions: K12STRAIN, nutrient broth medium, 37° C. overnight, read-out: MIC Escherichia coli K-12. Format: cell-based. On the procedure: (§1) Each of the above compounds was measured for minimum inhibitory concentration (MIC) for Staphylococcus aureus and Escherichia coli.
(§2) Staphylococcus aureus FDA209P strain and Escherichia coli K-12 strain each were cultured under shaking in a nutrient broth medium (polypeptone (product of NIHON PHARMACEUTICAL Co.) 1%, fish extract for bacteria (product of KYOKUTO PHARMACEUTICAL INDUSTRIAL Co.) 1%, and sodium chloride 0.2%) at 37° C. overnight.
(§3) After completion of the culturing, the culture was diluted with the nutrient broth medium so that the bacteria were 2×10^6 CFU/mL to 9×10^6 CFU/mL.
(§4) Each of the test samples (each of the above compounds, clarithromycin, and ampicillin) was prepared with the nutrient broth medium to have a concentration of 256 mg/L. From this concentration, the test sample was 2-fold diluted serially in 11 steps to 0.125 mg/L.
(§5) The above-diluted culture was added at 50 μL/well to 50 μL/well of the nutrient broth medium containing each of the test samples at the above concentrations, and was statically cultured at 37° C. overnight. After completion of the culturing, the presence or absence of proliferation of each bacterium was visually determined based on turbidity, and the MIC for each bacterial strain was obtained.

In data set [2] the test system is Enterococcus faecalis JCM5803 strain. Description: Measurement of MIC for Enterococcus faecalis. The data set is classed as cell-based. As to conditions: JCM5803, heart infusion broth medium, 37° C., 18 hours, read-out: MIC Enterococcus faecalis JCM5803. On the procedure:
Each of the above compounds was measured for minimum inhibitory concentration (MIC) for Enterococcus faecalis.
Enterococcus faecalis JCM5803 strain was cultured under shaking in a heart infusion broth medium (product of Becton, Dickinson Co.) at 37° C. overnight.
After completion of the culturing, the culture was diluted with the heart infusion broth medium so that the bacteria were 2×10^4 CFU/mL to 9×10^4 CFU/mL.
Each of the test samples (each of the above compounds, clarithromycin, and ampicillin) was prepared with the heart infusion broth medium to have a concentration of 256 mg/L. From this concentration, the test sample was 2-fold diluted serially in 11 steps to 0.125 mg/L.
The above-diluted culture was added at 50 μL/well to 50 μL/well of the heart infusion broth medium containing each of the test samples at the above concentrations, and was statically cultured at 37° C. for 18 hours.
(§6) After completion of the culturing, the presence or absence of proliferation of each bacterium was visually determined based on turbidity, and the MIC for each bacterial strain was obtained.

Data set [3] relates to H. pylori JCM12095 strain. Description: Measurement of MIC for H. pylori JCM12095. Format: cell-based. Conditions: Helicobacter pylori, JCM12095; HP medium, 144 hours, 37° C., microaerobic; read-out: MIC H. pylori JCM 12095. On the procedure:
(§7) Each of the above compounds was measured for minimum inhibitory concentration (MIC) for Helicobacter pylori.
(§8) Helicobacter pylori JCM12093 strain and H. pylori JCM12095 strain each were statically cultured in a HP medium (brain heart infusion broth (product of Becton, Dickinson Co.) supplemented with 10% fetal bovine serum (product of Life Technologies Co.)) for 144 hours at 37° C. under microaerobic culture conditions (microaerobic conditions (N2:O2:CO2=85:5:10)).
(§9) After completion of the culturing, the culture was suspended with the HP medium and diluted so that Helicobacter pylori was 2×10^6 CFU/mL to 9×10^6 CFU/mL.
(§10) Each of the test samples (each of the above compounds, clarithromycin, and ampicillin) was prepared with the HP medium to have a concentration of 256 mg/L. From this concentration, the test sample was 2-fold diluted serially in 15 steps to 0.0078 mg/L.
(§11) The above-diluted culture was added at 50 μL/well to 50 μL/well of the HP medium containing each of the test samples at the above concentrations, and was statically cultured for 144 hours at 37° C. under microaerobic culture conditions (microaerobic conditions (N2:O2:CO2=85:5:10)). After completion of the culturing, the presence or absence of proliferation of each bacterium was visually determined based on turbidity, and the MIC for each bacterial strain was obtained.

Data set [4] concerns H. influenza ARD476 strain. The data set can be described thus: Measurement of MIC for H. influenza ARD476. Format: cell-based. As to conditions: Haemophilus influenzae, ARD476STRAIN; HI medium, 18 hours, 37° C., 5% carbon dioxide; read-out: MIC H. influenzae ARD476. The method, then: (§12) Each of the above compounds was measured for minimum inhibitory concentration (MIC) for Haemophilus influenza.
(§13) Haemophilus influenza T-196 strain and H. influenza ARD476 strain each were statically cultured in a HI medium (Muller Hinton medium (product of Becton, Dickinson Co.) supplemented with 5% Fildes enrichment (product of Becton, Dickinson Co.)) at 37° C. overnight under aerobic conditions containing 5% carbon dioxide gas.
(§14) After completion of the culturing, the culture was suspended with the HI medium and diluted so that each Haemophilus influenza strain was 2×10^6 CFU/mL to 9×10^6 CFU/mL.
(§15) Each of the test samples (each of the above compounds, clarithromycin, and ampicillin) was prepared with the HI medium to have a concentration of 256 mg/L. From this concentration, the test sample was 2-fold diluted serially in 11 steps to 0.125 mg/L.
(§16) The above-diluted culture was added at 50 μL/well to 50 μL/well of the HI medium containing each of the test samples at the above concentrations, and was statically cultured for 18 hours at 37° C. under aerobic conditions containing 5% carbon dioxide gas.
as §6

For data set [5], the system named is Staphylococcus aureus FDA209P strain. The data set can be described thus: Measurement of MIC for Staphylococcus aureus. Format: cell-based. As to conditions: nutrient broth medium, 37° C. overnight, read-out: MIC Staphylococcus aureus FDA209P. On the procedure:
as §1, §2, §3, §4, §5

For data set [6], the system named is Haemophilus influenza T-196 strain. The data set can be described thus: Measurement of MIC for Haemophilus influenza T-196. Format: cell-based. Conditions: HI medium, 18 hours, 37° C., 5% carbon dioxide; read-out: MIC Haemophilus influenzae T-196. On the procedure: as §12, §13, §14, §15, §16, §6
Data set [7] has as its system Helicobacter pylori JCM12093 strain. The data set can be described thus: Measurement of MIC for Helicobacter pylori JCM12093. The data set is classed as cell-based. Conditions: Helicobacter pylori, JCM12093; HP medium, 144 hours, 37° C., microaerobic; read-out: MIC Helicobacter pylori JCM 12093. On the procedure: as §7, §8, §9, §10, §11
For data set [8], the system named is human stomach cancer cells MKN-74 cocultured with normal stromal cells derived from the human stomach, Hs738. The data set can be described thus: Cell proliferation test, coculture test with normal stromal cells Hs738 (GFP fluorescence). As to conditions: coculture test, MKN-74 with stromal cells Hs738, cell proliferation rate, average of duplicate, read-out: Cocul IC50. The data set is classed as cell-based. The method, then: (§17) Human stomach cancer cells MKN-74 (Riken Cell Bank) were cultured at 37° C. and 5% CO2 in DMEM supplemented with 10% FBS (product of GIBCO Co.), 100 units/mL penicillin G (product of Invitrogen Co.), and 100 μg/mL streptomycin (product of Invitrogen Co.).
(§18) The above cancer cells were allowed to undergo gene transfer of Green fluorescence protein (GFP) expression vector, pEGFP-C1 (product of BD Biosciences Co.) using the Lipofectamine reagent (product of Invitrogen Co.), to thereby clone cells stably expressing GFP.
Normal stromal cells derived from the human stomach, Hs738 ((CRL-7869), ATCC) were cultured at 37° C. and 5% CO2 in DMEM supplemented with 10% FBS, 100 units/mL penicillin G (product of Invitrogen Co.), 100 μg/mL streptomycin (product of Invitrogen Co.), 5 μg/mL insulin, 5 μg/mL transferrin (product of Wako Pure Chemical Industries Co.), 1.4 μM hydrocortisone (product of Sigma Co.), and […] basic-FGF (product of Pepro Tech Co.).
The above normal stromal cells derived from the human stomach, Hs738 were dispersed at 5×10^4 cells/mL in DMEM containing 1% dialyzed serum, 5 μg/mL insulin, 5 μg/mL transferrine (product of Wako Pure Chemical Industries Co.), and 1.4 μM hydrocortisone (product of Sigma Co.), and were placed in a 96-well plate at 0.1 mL/well. Respective evaluation samples (the compounds expressed by Structural Formulas (1) to (13)) were added thereto at respective concentrations, followed by culturing at 37° C. and 5% CO2 for 2 days.
Next, the above human stomach cancer cells MKN-74 were dispersed in DMEM at 5×10^5 cells/mL, and were placed at 10 μL/well in the plate in which the above normal stromal cells derived from the human stomach, Hs738 had been cultured, followed by further coculturing at 37° C. and 5% CO2 for 3 days.
(§19) Measurement of cell proliferation rates in the above coculture test and monoculture test was performed in the following manner.
(§20) The medium was removed from the wells of the above plate, and a cytolysis liquid (10 mM Tris-HCl [pH 7.4], 150 mM NaCl, 0.9 mM CaCl2, and 1% Triton X-100) was added thereto at 0.1 mL/well to lyse the cells. The fluorescence intensity of GFP was measured at an excitation wavelength of 485 nm and a fluorescence wavelength of 538 nm, and the cell proliferation rates were calculated from the following formula. Cell proliferation rate (%)=(Fluorescence intensity in the presence of the evaluation sample/Fluorescence intensity in the absence of the evaluation sample)×100

In data set [9] the test system is human stomach cancer cells MKN-74. The data set can be described thus: Cell proliferation test, monoculture test (GFP fluorescence). Format: cell-based. Conditions: monoculture test, MKN-74 alone, cell proliferation rate, average of duplicate, read-out: Mono IC50. On the procedure: as §17, §18
Only DMEM containing 1% dialyzed serum, 5 μg/mL insulin, 5 μg/mL transferrine (product of Wako Pure Chemical Industries Co.), and 1.4 μM hydrocortisone (product of Sigma Co.) was placed in a 96-well plate at 0.1 mL/well, and respective evaluation samples (the compounds expressed by Structural Formulas (1) to (13)) were added thereto at respective concentrations, followed by maintaining at 37° C. and 5% CO2 for 2 days.
Next, the above human stomach cancer cells MKN-74 were dispersed in DMEM at 5×10^5 cells/mL, and were placed in the above plate at 10 μL/well, followed by further coculturing at 37° C. and 5% CO2 for 3 days.
as §19, §20

Data set [10] is described as follows: Acute toxicity test (maximum tolerated dose). Conditions: female, ICR, mouse, in vivo, iv. The source says: ICR mice (female, 4 weeks old, product of Charles River Co.) were bred under the SPF conditions.
One half of the administration dose at which the mice were recognized to be dead or have serious toxicity for the observation period of 2 weeks was defined as the maximum tolerated dose (MTD) in the present experiment.

For the compound `CC1(C)S[C@@H]2[C@H](NC(=O)[C@H](N)c3ccccc3)C(=O)N2[C@H]1C(=O)O` [ABPC, ampicillin, reference compound], the MIC in data set [1] was 4 µg/mL (≈ 11.4 µM); in data set [2], 0.5 µg/mL (≈ 1.43 µM); in data set [3], 0.13 µg/mL (≈ 0.372 µM); in [4], 64 µg/mL (≈ 183 µM); in [5], under 0.125 µg/mL; in data set [6] it was 0.5 µg/mL (≈ 1.43 µM). In data set [7], the MIC is 0.25 µg/mL (≈ 0.715 µM).

`CC[C@H]1OC(=O)[C@H](C)[C@@H](O[C@H]2C[C@@](C)(OC)[C@@H](O)[C@H](C)O2)[C@H](C)[C@@H](O[C@@H]2O[C@H](C)C[C@H](N(C)C)[C@H]2O)[C@](C)(OC)C[C@@H](C)C(=O)[C@H](C)[C@@H](O)[C@]1(C)O` [Clarithromycin, clarithromycin, reference compound]: the MIC in [1] was 16 µg/mL (≈ 21.4 µM); in [2] it was 0.5 µg/mL (≈ 0.668 µM); in [3], 0.008 µg/mL (≈ 0.0107 µM); in data set [4], 4 µg/mL (≈ 5.35 µM); in data set [5], under 0.125 µg/mL; in data set [6], 8 µg/mL (≈ 10.7 µM). Besides, the MIC in data set [7] was 0.008 µg/mL (≈ 0.0107 µM).

On to `CCCCCCCCc1c(C)c(=O)c2ccccc2n1CNC(=O)SC` [Structural Formula (10)], for which the IC50 in data set [8] amounted to 0.27 µg/mL; in data set [9] it was 7.57 µg/mL. Moreover, in [10] (intravenous administration, ICR mice, observed for 2 weeks, one half of the dose with death or serious toxicity, read-out: MTD), the MTD at 2 weeks is at least 50 mg/kg.

As to `CCCCCCCCc1c(C)c(=O)c2ccccc2n1CC(=O)SC` [Structural Formula (9)], the half-inhibitory concentration (IC50) in [8] is 1.4 µg/mL; in [9] it was 5.84 µg/mL. For the same compound, in data set [10] (MTD), the MTD at 2 weeks is at least 50 mg/kg.

Take `CCCCCCCCc1c(C)c(=O)c2ccccc2n1C#N` [Structural Formula (7)]: the IC50 was 0.007 µg/mL in data set [8] and over 100 µg/mL in data set [9]. Besides, the MTD at 2 weeks in [10] (MTD) came to 6.25 mg/kg.

On to `CCCCCCCCc1nc2ccccc2c(OCC(=O)OC)c1C` [Structural Formula (1)], for which the values for the half-inhibitory concentration (IC50) in data set [8] and in data set [9] were 0.35 µg/mL and 28.1 µg/mL, respectively. In [10] (MTD), this compound gave an MTD at 2 weeks of at least 50 mg/kg.
